Source: US20230167127A1, “COMPOUNDS AND THEIR USE IN THE TREATMENT OF BACTERIAL INFECTION” (Hoffmann-La Roche Inc., priority 2020, published 2023)
Like-named read-outs stand apart in the source and are kept apart here.

System: Escherichia coli ATCC 25922
Test: 50% growth inhibitory concentration (IC50) determination, Iso-Sensitest broth dilution
Type: cell-based
Conditions: strain Escherichia coli ATCC 25922, 10-point broth dilution, optical density at 600 nm over 16 h, read-out: Escherichia coli growth inhibition IC50
Protocol: 50% Growth Inhibitory Concentration (IC50) Determination
The in vitro antimicrobial activity of the compounds was determined according to the following procedure:
The assay used a 10-point Iso-Sensitest broth dilution method to measure quantitatively the in vitro
ATCC 25922, Acinetobacter baumannii ATCC 17961, Klebsiella pneumoniae ATCC 43816 and Staphylococcus aureus ATCC 29213.
Stock compounds in DMSO were serially twofold diluted (e.g. range from 50 to 0.097 μM final concentration) in 384 wells microtiter plates and inoculated with 50 μL of the bacterial suspension in Iso-
ell of 50 μL/well. Microtiter plates were incubated at 35±2° C.
Bacterial cell growth was determined with the measurement of optical density at λ=600 nm each 20 minutes over a time course of 16 h.
Growth inhibition was calculated during the logarithmic growth of the bacterial cells with
Table 1 provides the 50% growth inhibitory concentrations (IC50) in micromoles per liter of the compounds of present invention obtained against the strain Escherichia coli ATCC 25922.

[1] = Escherichia coli, ATCC25922, 16 h

Compound | IC50 [1] [nM] | IC50 [nM]
N#Cc1cccc2c1C(N)C(CNCCC1CN(c3ccc4c(n3)NC(=O)CS4)C(=O)O1)C2 (racemic) [Example 157, rac-2,3-trans-3-amino-2-[[2-[2-oxo-3-(3-oxo-4H-pyrido[3,2-b][1,4]thiazin-6-yl)-1,3-oxazolidin-5-yl]ethylamino]methyl]-2,3-dihydro-1H-indene-4-carbonitrile] | < 97.7 | 
COc1cc2c(c(C#N)n1)CC(CNCCC1CN(c3ccc4c(n3)NC(=O)CO4)C(=O)O1)C2 (stereo not drawn) [Example 53, 3-methoxy-6-[[2-[2-oxo-3-(3-oxo-4H-pyrido[3,2-b][1,4]oxazin-6-yl)-1,3-oxazolidin-5-yl]ethylamino]methyl]-6,7-dihydro-5H-cyclopenta[c]pyridine-1-carbonitrile] | < 97.7 | 
C[C@H](N)COc1cc(F)c2c(c1)CC(CN1CCC3(CC1)CN(c1cnc4c(n1)NC(=O)CO4)C(=O)O3)C2 (stereo partly drawn) [Example 356, 6-[8-[[6-[(2S)-2-aminopropoxy]-4-fluoro-2,3-dihydro-1H-inden-2-yl]methyl]-2-oxo-1-oxa-3,8-diazaspiro[4.5]decan-3-yl]-4H-pyrazino[2,3-b][1,4]oxazin-3-one; formic acid] | < 97.7 | 
NC(=O)COc1ccc2c(c1F)CC(CNCCC1CN(c3cnc4c(n3)NC(=O)CO4)C(=O)O1)C2 (stereo not drawn) [Example 413, 2-[[4-fluoro-2-[[2-[2-oxo-3-(3-oxo-4H-pyrazino[2,3-b][1,4]oxazin-6-yl)-1,3-oxazolidin-5-yl]ethylamino]methyl]-2,3-dihydro-1H-inden-5-yl]oxy]acetamide] | < 97.7 | 
NC1c2cccc(Cl)c2CC1NCCCC1CN(c2cnc3c(n2)NC(=O)CO3)C(=O)O1 (racemic) [Example 245, 6-[2-oxo-5-[3-[[rac-1,2-trans-1-amino-4-chloro-2,3-dihydro-1H-inden-2-yl]amino]propyl]-1,3-oxazolidin-3-yl]-4H-pyrazino[2,3-b][1,4]oxazin-3-one] | 119 | 
N#Cc1cccc2c1CC(NC1CCC3(CC1)CN(c1ccc4c(n1)NC(=O)CO4)C(=O)O3)C2 (single isomer, unassigned; isomer a) [Example 39, 2-[[2-oxo-3-(3-oxo-4H-pyrido[3,2-b][1,4]oxazin-6-yl)-1-oxa-3-azaspiro[4.5]decan-8-yl]amino]-2,3-dihydro-1H-indene-4-carbonitrile, Isomer A; formic acid] |  | 737
Cc1ncc(F)c2c1CC(CNC[C@@H](O)[C@H]1CN(c3cnc4c(n3)NC(=O)CO4)C(=O)O1)C2 (stereo partly drawn) [Example 360, 6-[(5R)-5-[(1R)-2-[(4-Fluoro-1-methyl-6,7-dihydro-5H-cyclopenta[c]pyridin-6-yl)methylamino]-1-hydroxyethyl]-2-oxo-1,3-oxazolidin-3-yl]-4H-pyrazino[2,3-b][1,4]oxazin-3-one; formic acid] | 319 | 
O=C1COc2ncc(N3CC4(CCN(CC5Cc6ccnc(Cl)c6C5)CC4)OC3=O)nc2N1 (stereo not drawn) [Example 373, 6-[8-[(1-chloro-6,7-dihydro-5H-cyclopenta[c]pyridin-6-yl)methyl]-2-oxo-1-oxa-3,8-diazaspiro[4.5]decan-3-yl]-4H-pyrazino[2,3-b][1,4]oxazin-3-one] | < 97.7 | 
Cc1nc(OCCCS(C)(=O)=O)c(C)c2c1CC(CNCCC1CN(c3ccc4c(n3)NC(=O)CO4)C(=O)O1)C2 (stereo not drawn) [Example 105, 6-[5-[2-[[1,4-dimethyl-3-(3-methylsulfonylpropoxy)-6,7-dihydro-5H-cyclopenta[c]pyridin-6-yl]methylamino]ethyl]-2-oxo-1,3-oxazolidin-3-yl]-4H-pyrido[3,2-b][1,4]oxazin-3-one] | 1110 | 
CC(C)(N)COc1cc(C#N)c2c(c1)CC(CNCCC1CN(c3cnc4c(n3)NC(=O)CO4)C(=O)O1)C2 (stereo not drawn) [Example 204, 6-(2-amino-2-methylpropoxy)-2-(((2-(2-oxo-3-(3-oxo-3,4-dihydro-2H-pyrazino[2,3-b][1,4]oxazin-6-yl)oxazolidin-5-yl)ethyl)amino)methyl)-2,3-dihydro-1H-indene-4-carbonitrile] | < 97.7 | 
CC(C)(N)COc1cc(C#N)c2c(c1)CC(CN1CCC3(CC1)CN(c1cnc4c(n1)NC(=O)CO4)C(=O)O3)C2 (stereo not drawn) [Example 407, 6-(2-amino-2-methylpropoxy)-2-[[2-oxo-3-(3-oxo-4H-pyrazino[2,3-b][1,4]oxazin-6-yl)-1-oxa-3,8-diazaspiro[4.5]decan-8-yl]methyl]-2,3-dihydro-1H-indene-4-carbonitrile] | < 97.7 | 
CC(N)COc1cc(F)c2c(c1)CC(CN1CCC3(CC1)CN(c1cnc4c(n1)NC(=O)CO4)C(=O)O3)C2 (stereo not drawn) [Example 260, 6-[8-[[6-(2-Aminopropoxy)-4-fluoro-2,3-dihydro-1H-inden-2-yl]methyl]-2-oxo-1-oxa-3,8-diazaspiro[4.5]decan-3-yl]-4H-pyrazino[2,3-b][1,4]oxazin-3-one; formic acid] | < 97.7 | 
N#Cc1cccc2c1CC(CNCC1CN(c3ccc4c(n3)NC(=O)CO4)C(=O)O1)C2N (racemic) [Example 229, rac-1,2-trans-1-Amino-2-((((2-oxo-3-(3-oxo-3,4-dihydro-2H-pyrido[3,2-b][1,4]oxazin-6-yl)oxazolidin-5-yl)methyl)amino)methyl)-2,3-dihydro-1H-indene-4-carbonitrile] | 1570 | 
N#Cc1cccc2c1CC(CN[C@H]1C[C@]3(CN(c4ccc5c(n4)NC(=O)CO5)C(=O)O3)C1)C2 (stereo partly drawn) [Example 183, 2-[[[2,4-cis-6-oxo-7-(3-oxo-4H-pyrido[3,2-b][1,4]oxazin-6-yl)-5-oxa-7-azaspiro[3.4]octan-2-yl]amino]methyl]-2,3-dihydro-1H-indene-4-carbonitrile] | 153 | 
O=C1COc2ccc(N3CC(CNC4Cc5cccc(Cl)c5C4)OC3=O)nc2N1 (stereo not drawn) [Example 22, 6-[5-[[(4-chloro-2,3-dihydro-1H-inden-2-yl)amino]methyl]-2-oxo-1,3-oxazolidin-3-yl]-4H-pyrido[3,2-b][1,4]oxazin-3-one] | 8530 | 
O=C1COc2ncc(N3CC(CC(O)CNC4Cc5cccc(F)c5C4)OC3=O)nc2N1 (single isomer, unassigned; isomer a) [Example 83, 6-[5-[3-[(4-fluoro-2,3-dihydro-1H-inden-2-yl)amino]-2-hydroxypropyl]-2-oxo-1,3-oxazolidin-3-yl]-4H-pyrazino[2,3-b][1,4]oxazin-3-one, Isomer A; formic acid] |  | < 97.7
N#Cc1cc(OCC(N)=O)cc2c1CC(CNCCC1CN(c3cnc4c(n3)NC(=O)CO4)C(=O)O1)C2 (stereo not drawn) [Example 414, 2-[[7-cyano-2-[[2-[2-oxo-3-(3-oxo-4H-pyrazino[2,3-b][1,4]oxazin-6-yl)-1,3-oxazolidin-5-yl]ethylamino]methyl]-2,3-dihydro-1H-inden-5-yl]oxy]acetamide] | 127 | 
Cc1ncc(Cl)c2c1CC(CNCCC1CN(c3cnc4c(n3)NC(=O)CO4)C(=O)O1)C2N (racemic) [Example 263, 6-[2-oxo-5-[2-[[rac-5,6-trans-5-amino-4-chloro-1-methyl-6,7-dihydro-5H-cyclopenta[c]pyridin-6-yl]methylamino]ethyl]-1,3-oxazolidin-3-yl]-4H-pyrazino[2,3-b][1,4]oxazin-3-one] | 127 | 
Cc1ncc(F)c2c1CC(CNCCC1(CN)CN(c3ccc4c(n3)NC(=O)CO4)C(=O)O1)C2 (stereo not drawn) [Example 242, 6-[5-(Aminomethyl)-5-[2-[(4-fluoro-1-methyl-6,7-dihydro-5H-cyclopenta[c]pyridin-6-yl)methylamino]ethyl]-2-oxo-1,3-oxazolidin-3-yl]-4H-pyrido[3,2-b][1,4]oxazin-3-one] | 778 | 
NC1(COc2ncc3c(c2Cl)CC(CNCCC2CN(c4ccc5c(n4)NC(=O)CO5)C(=O)O2)C3)CC1 (stereo not drawn) [Example 181, 6-[5-[2-[[3-[(1-aminocyclopropyl)methoxy]-4-chloro-6,7-dihydro-5H-cyclopenta[c]pyridin-6-yl]methylamino]ethyl]-2-oxo-1,3-oxazolidin-3-yl]-4H-pyrido[3,2-b][1,4]oxazin-3-one] | < 97.7 | 
Cc1ncc(F)c2c1CC(CCNCC1(CCO)CN(c3ccc4c(n3)NC(=O)CO4)C(=O)O1)C2 (stereo not drawn) [Example 278, 6-[5-[[2-(4-fluoro-1-methyl-6,7-dihydro-5H-cyclopenta[c]pyridin-6-yl)ethylamino]methyl]-5-(2-hydroxyethyl)-2-oxo-1,3-oxazolidin-3-yl]-4H-pyrido[3,2-b][1,4]oxazin-3-one] | 1890 | 
NC1(COc2ccc3c(c2Cl)CC(NCCCC2CN(c4ccc5c(n4)NC(=O)CO5)C(=O)O2)C3)CC1 (stereo not drawn) [Example 119, 6-[5-[3-[[5-[(1-aminocyclopropyl)methoxy]-4-chloro-2,3-dihydro-1H-inden-2-yl]amino]propyl]-2-oxo-1,3-oxazolidin-3-yl]-4H-pyrido[3,2-b][1,4]oxazin-3-one; formic acid] | < 97.7 | 
N#Cc1c(OC2CNC2)ccc2c1CC(CNCCC1CN(c3ccc4c(n3)NC(=O)CO4)C(=O)O1)C2 (stereo not drawn) [Example 132, 5-(azetidin-3-yloxy)-2-[[2-[2-oxo-3-(3-oxo-4H-pyrido[3,2-b][1,4]oxazin-6-yl)-1,3-oxazolidin-5-yl]ethylamino]methyl]-2,3-dihydro-1H-indene-4-carbonitrile; formic acid] | 145 | 
N#Cc1cccc2c1C(N)C(CNCCC1CN(c3ccc4c(n3)NC(=O)CO4)C(=O)O1)C2 (racemic) [Example 156, rac-2,3-trans-3-amino-2-[[2-[2-oxo-3-(3-oxo-4H-pyrido[3,2-b][1,4]oxazin-6-yl)-1,3-oxazolidin-5-yl]ethylamino]methyl]-2,3-dihydro-1H-indene-4-carbonitrile] | < 97.7 | 
